Experiments:
[1] = target: T1, Nt-hMLKL^C86A/L89A/D94A (Homo sapiens, UniProt Q8NB16, C86A/D94A/L89A); assay: SPR binding to Nt-hMLKL triple mutant; conditions: CM5 chip
T1 construct: an N-terminal domain (Nt-hMLKL, amino acids 2–154, MW: 23 kDa) involved in oligomerization; His (N); made in house; host or cells: E. coli BL21
Description: The hMLKL plasmid (RC213152, OriGene, Rockville, MD, USA), and recombinant Wt-hMLKL (ab241453, Abcam) and Wt-mMLKL (MBS1379843, MyBioSource, San Diego, CA, USA) proteins were purchased. Nt-hMLKL (2–154), Nt-mMLKL (1–180), and Ct-hMLKL (183–471) were generated using the pBT7-N-His vector. Nt-hMLKL^C86A, Nt-hMLKL^F148A, -hMLKL^C86A/L89A/D94A, and Nt-hMLKL^R145A/R146A/F148A/M150A were generated using the Site-directed Mutagenesis Kit (EZ004S, Enzynomics, S. Korea). These constructs were subcloned into pBT7-N-His and pET-15b plasmid vectors. E. coli BL21 cells transformed with the cloned expression vectors were cultured in LB medium and supplemented with 100 μg/mL ampicillin until an OD at 600 nm of 0.5–0.6 was reached. The cultures were induced by 1 mM IPTG (367-93-1, Sigma-Aldrich). The cells were lysed and centrifuged. The clear supernatants were subjected to Ni-NTA affinity chromatography (175018169, QIAGEN, Hilden, Germany). Plasmids encoding mMLKL (1–464)–gyrase fusion constructs were kindly provided by Prof. […]
The interactions of Wt-hMLKL, Wt-mMLKL, Nt-mMLKL, Nt, and Ct-hMLKL proteins with Re-APO or Ox-APO were detected through SPR analysis using Biacore™ T200 (Cytiva, Marlborough, MA, USA). […] Sensorgrams were recorded and analyzed in real-time using the control software in the BIAcore T200 system. All data were analyzed using the BIA evaluation software (Cytiva).

[2] = test system: THP-1 cells; assay: PI uptake assay after TBZ treatment; format: cell-based; conditions: Homo sapiens; THP-1, TBZ, 8 h
Description: To identify potential inhibitors of the necroptosis pathway targeting MLKL or the process of p-MLKL pore formation on the membrane, we screened a library of 2150 compounds, including FDA-approved drugs and those in phase 1–3 clinical trials, using THP-1-HMGB1-Lucia™ cells expressing the HMGB1-luciferase fusion protein. The cells were treated with a necroptosis-inducing mixture containing TNF-α, BV6, and Z-VAD-FMK (TBZ) in addition to the compound library (Fig. 1A). The supernatants were harvested to measure luciferase activities for necroptosis. The luciferase activities of cell supernatants treated with TBZ alone were considered as the maximum release (100%) of HMGB1-luciferase. NEC-1, a known RIP1 inhibitor used in both humans and mice, was used as a positive control. An initial screening was performed to identify compounds that reduced luciferase activity to within 20% of the TBZ-treated supernatant, and 72 compounds (S1–S72) were selected (Table S1). Among these compounds were four known necroptosis inhibitors of pazopanib (S10), bardoxolone (S16), ponatinib (S17), and dabrafenib (S31), indicating the reliability of this screening assay. […]
PI uptake assays were performed in triplicate to evaluate pore formation on the plasma membrane. […] Fluorescence was recorded using a Varioskan Flash 3001 plate reader (Thermo Fisher Scientific, Waltham, MA, USA).

T1 sequence (Q8NB16 2-154 C86A/L89A/D94A): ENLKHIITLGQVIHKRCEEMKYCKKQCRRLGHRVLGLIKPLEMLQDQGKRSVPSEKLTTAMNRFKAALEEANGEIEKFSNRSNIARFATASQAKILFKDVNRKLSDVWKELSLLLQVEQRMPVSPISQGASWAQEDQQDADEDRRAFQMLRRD

Row | Structure (SMILES) | binding in SPR [1] | IC50 [2]
1 | CN1CCc2cccc3c4c(cc1c23)C=CC(=O)C4=O [Ox-APO] | no binding | –
2 | CN1CCc2cccc3c2[C@@H]1Cc1ccc(O)c(O)c1-3 [S62, (6aS)-6-methyl-5,6,6a,7-tetrahydro-4H-dibenzo[de,g]quinoline-10,11-diol] | – | 5.7 µM

— PMC12518639, “Apomorphine is a novel necroptosis inhibitor targeting mixed lineage kinase domain-like protein oligomerization” (Cell Death Discovery, 2025)
